ChEMBL document CHEMBL4342436, “Artemisia: a promising plant for the treatment of cancer” (Bioorg Med Chem, 2020)
≈ marks a conversion by molar mass, not a printed value.

Tests used:
A549 [1] = assay: Cytotoxicity against human A549 cells by MTT assay; assay type: functional, cell-based
Bel-7402 = assay: Cytotoxicity against human Bel7402 cells by MTT assay; assay type: functional, cell-based
SK-OV-3 = assay: Cytotoxicity against human SKOV3 cells by SRB assay; assay type: functional, cell-based
HCT-15 = assay: Cytotoxicity against human HCT15 cells by SRB assay; assay type: functional, cell-based
SK-MEL-2 [2] = assay: Cytotoxicity against human SK-MEL-2 cells by SRB assay; assay type: functional, cell-based
XF498 = assay: Cytotoxicity against human XF498 cells by SRB assay; assay type: functional, cell-based
A549 [3] = assay: Cytotoxicity against human A549 cells by SRB assay; assay type: functional, cell-based
KB = assay: Cytotoxicity against human KB cells; assay type: functional, cell-based
LNCaP = assay: Cytotoxicity against human LNCAP cells; assay type: functional, cell-based
HepG2 [4] = assay: Cytotoxicity against human HepG2 cells; assay type: functional, cell-based
MCF7 [5] = assay: Cytotoxicity against human MCF7 cells; assay type: functional, cell-based
SK-MEL-2 [6] = assay: Cytotoxicity against human SK-MEL-2 cells; assay type: functional, cell-based
HeLa [7] = assay: Cytotoxicity against human HeLa cells; assay type: functional, cell-based
SH-SY5Y = assay: Cytotoxicity against human SH-SY5Y cells after 72 hrs by MTT assay; assay type: functional, cell-based
[8] = Cytotoxicity against mouse S17 cells after 72 hrs by MTT assay; assay type: functional, cell-based; conditions: S17, 72 h
HepG2 [9] = assay: Cytotoxicity against human HepG2 cells after 72 hrs by MTT assay; assay type: functional, cell-based; conditions: HepG2, 72 h
[10] = Antioxidant activity assessed as ONOO scavenging activity; assay type: functional
MCF7 [11] = assay: Cytotoxicity against human MCF7 cells after 72 hrs by MTT assay; assay type: functional, cell-based; conditions: MCF7, 72 h
A2780 = assay: Cytotoxicity against human A2780 cells after 72 hrs by MTT assay; assay type: functional, cell-based; conditions: A2780, 72 h
A-431 = assay: Cytotoxicity against human A431 cells after 72 hrs by MTT assay; assay type: functional, cell-based; conditions: A-431, 72 h
HeLa [12] = assay: Cytotoxicity against human HeLa cells after 72 hrs by MTT assay; assay type: functional, cell-based
HeLa [13] = assay: Cytotoxicity against human HeLa cells assessed as reduction in cell viability incubated for 48 hrs by MTT assay; assay type: functional, cell-based
MCF7 [14] = assay: Cytotoxicity against human MCF7 cells assessed as reduction in cell viability incubated for 48 hrs by MTT assay; assay type: functional, cell-based; conditions: MCF7, 48 h
HeLa [15] = assay: Cytotoxicity against human HeLa cells assessed as reduction in cell viability after 24 hrs by MTT assay; assay type: functional, cell-based
COLO 205 = assay: Antiproliferative activity against human COLO205 cells assessed as reduction in cell viability after 48 hrs by MTT assay; assay type: functional, cell-based; conditions: COLO 205, 48 h
MIA PaCa-2 = assay: Antiproliferative activity against human MIAPaCa2 cells assessed as reduction in cell viability after 48 hrs by MTT assay; assay type: functional, cell-based; conditions: MIA PaCa-2, 48 h
A549 [16] = assay: Antiproliferative activity against human A549 cells assessed as reduction in cell viability after 48 hrs by MTT assay; assay type: functional, cell-based; conditions: A549, 48 h
BHY = assay: Antiproliferative activity against human BHY cells assessed as reduction in cell viability after 48 hrs by MTT assay; assay type: functional, cell-based
MCF7 [17] = assay: Antiproliferative activity against human MCF7 cells assessed as reduction in cell viability after 48 hrs by MTT assay; assay type: functional, cell-based; conditions: MCF7, 48 h
[18] = Cytotoxicity against human YD-10B cells assessed as reduction in cell viability after 48 hr by MTT asssay; assay type: functional, cell-based
HL-60 = assay: Antiproliferative activity against human HL60 cells assessed as reduction in cell viability after 3 days by XTT assay; assay type: functional, cell-based; conditions: HL-60, 72 h
PANC-1 [19] = assay: Cytotoxicity against human PANC1 cells assessed as cell viability after 24 hrs by MTT assay relative to control; assay type: functional
CFPAC-1 [20] = assay: Antitumour activity against human CFPAC-1 cells xenografted in ip dosed nude BALB/c mouse assessed as tumor weight for 18 days; assay type: functional
PANC-1 [21] = assay: Antitumour activity against human PANC1 cells xenografted in ip dosed nude BALB/c mouse assessed as tumor weight for 18 days; assay type: functional
CFPAC-1 [22] = assay: Cytotoxicity against human CFPAC-1 cells assessed as cell viability after 24 hrs by MTT assay relative to control; assay type: functional

C=C1C(=O)O[C@H]2[C@H]1[C@@H](OC(C)=O)C[C@@](C)(O)[C@@]13O[C@@H]1[C@@H](Cl)[C@](C)(O)[C@H]23
IC50 (A549 [1]): 3.3 to 6 µM | IC50 (Bel-7402): 3.3 to 6 µM

C=C1C(=O)O[C@@H]2C[C@@]3(C)C=CC(=O)C(C)=C3C[C@H]12
IC50 (SK-OV-3): 0.4 to 26.8 µg/mL (≈ 1.64 to 110 µM) | IC50 (HCT-15): 0.4 to 26.8 µg/mL (≈ 1.64 to 110 µM) | IC50 (SK-MEL-2 [2]): 0.4 to 26.8 µg/mL (≈ 1.64 to 110 µM) | IC50 (XF498): 0.4 to 26.8 µg/mL (≈ 1.64 to 110 µM) | IC50 (A549 [3]): 0.4 to 26.8 µg/mL (≈ 1.64 to 110 µM)

C=C1C(=O)O[C@H]2[C@H]1CC[C@@](C)(O)C1=C[C@@H](O)[C@@](C)(O)[C@@H]12
IC50 (KB): > 100 µM | IC50 (LNCaP): > 100 µM | IC50 (HepG2 [4]): > 100 µM | IC50 (MCF7 [5]): > 100 µM | IC50 (SK-MEL-2 [6]): > 100 µM

COc1ccc(-c2cc(=O)c3c(O)cc(O)cc3o2)cc1 [ACACETIN]
IC50 (SK-OV-3): 0.4 to 26.8 µg/mL (≈ 1.41 to 94.3 µM) | IC50 (HCT-15): 0.4 to 26.8 µg/mL (≈ 1.41 to 94.3 µM) | IC50 (SK-MEL-2 [2]): 0.4 to 26.8 µg/mL (≈ 1.41 to 94.3 µM) | IC50 (XF498): 0.4 to 26.8 µg/mL (≈ 1.41 to 94.3 µM) | IC50 (A549 [3]): 0.4 to 26.8 µg/mL (≈ 1.41 to 94.3 µM)

O=c1cc(-c2ccc(O)cc2)oc2cc(O)cc(O)c12 [APIGENIN]
IC50 (HeLa [7]): 6.09 µM

COc1ccc(-c2oc3cc(OC)c(OC)c(O)c3c(=O)c2OC)cc1OC [ARTEMETIN]
IC50 (SH-SY5Y): 229 to 233 µM | IC50 [8]: 229 to 233 µM | IC50 (HepG2 [9]): 229 to 233 µM

O=C(/C=C/c1ccc(O)c(O)c1)O[C@@H]1C[C@](O)(C(=O)O)C[C@@H](O)[C@H]1O [CHLOROGENIC ACID]
IC50 [10]: 0.52 µM

COc1cc(-c2cc(=O)c3c(O)c(OC)c(OC)cc3o2)ccc1O [CIRSILENEOL]
IC50 (MCF7 [11]): 33 to 75 µg/mL (≈ 95.8 to 218 µM) | IC50 (A2780): 33 to 75 µg/mL (≈ 95.8 to 218 µM) | IC50 (A-431): 33 to 75 µg/mL (≈ 95.8 to 218 µM) | IC50 (HeLa [12]): 33 to 75 µg/mL (≈ 95.8 to 218 µM)

CC1=CC(=O)C2=C(C)CC[C@@H]3[C@H](OC(=O)[C@H]3C)[C@@H]12 [DESACETOXYMATRICARIN]
IC50 (SK-OV-3): 0.4 to 26.8 µg/mL (≈ 1.62 to 109 µM) | IC50 (HCT-15): 0.4 to 26.8 µg/mL (≈ 1.62 to 109 µM) | IC50 (SK-MEL-2 [2]): 0.4 to 26.8 µg/mL (≈ 1.62 to 109 µM) | IC50 (XF498): 0.4 to 26.8 µg/mL (≈ 1.62 to 109 µM) | IC50 (A549 [3]): 0.4 to 26.8 µg/mL (≈ 1.62 to 109 µM)

COc1ccc(-c2cc(=O)c3c(O)c(OC)c(OC)cc3o2)cc1O [EUPATORIN]
IC50 (HeLa [13]): 8.1 to 63.2 µM | IC50 (MCF7 [14]): 10.3 to 91.9 µM

COc1cc(O)c2c(=O)cc(-c3ccc(O)cc3)oc2c1 [GENKWANIN]
IC50 (SK-OV-3): 0.4 to 26.8 µg/mL (≈ 1.41 to 94.3 µM) | IC50 (HCT-15): 0.4 to 26.8 µg/mL (≈ 1.41 to 94.3 µM) | IC50 (SK-MEL-2 [2]): 0.4 to 26.8 µg/mL (≈ 1.41 to 94.3 µM) | IC50 (HeLa [13]): 8.1 to 63.2 µM | IC50 (XF498): 0.4 to 26.8 µg/mL (≈ 1.41 to 94.3 µM) | IC50 (MCF7 [14]): 10.3 to 91.9 µM | IC50 (A549 [3]): 0.4 to 26.8 µg/mL (≈ 1.41 to 94.3 µM) | IC50 [10]: 1.01 µM

C=C1C(=O)O[C@@H]2C[C@@]3(C)CCCC(=C)[C@@H]3C[C@H]12 [ISOALANTOLACTONE]
IC50 (HeLa [15]): 8.15 µM

COc1cc(-c2oc3cc(O)cc(O)c3c(=O)c2O)ccc1O [ISORHAMNETIN]
IC50 (HeLa [13]): 8.1 to 63.2 µM | IC50 (MCF7 [14]): 10.3 to 91.9 µM

COc1cc(O)c2c(=O)c(OC)c(-c3ccc(O)cc3)oc2c1 [KUMATAKENIN]
IC50 (HeLa [13]): 8.1 to 63.2 µM | IC50 (MCF7 [14]): 10.3 to 91.9 µM

C=C(C)[C@@H]1CC[C@]2(C)CC[C@]3(C)[C@H](CC[C@@H]4[C@@]5(C)CC[C@H](O)C(C)(C)[C@@H]5CC[C@]43C)[C@@H]12 [LUPEOL]
IC50 (COLO 205): 25.2 to 88.1 µM | IC50 (MIA PaCa-2): 25.2 to 88.1 µM | IC50 (A549 [16]): 25.2 to 88.1 µM | IC50 (BHY): 25.2 to 88.1 µM | IC50 (MCF7 [17]): 25.2 to 88.1 µM

O=c1cc(-c2ccc(O)c(O)c2)oc2cc(O)cc(O)c12 [LUTEOLIN]
IC50 (HeLa [7]): 16.3 µM

CC(=O)O[C@H]1C(=O)[C@@]2(C)[C@H]([C@H](OC(=O)c3ccccc3)[C@]3(O)C[C@H](OC(=O)[C@H](O)[C@@H](NC(=O)c4ccccc4)c4ccccc4)C(C)=C1C3(C)C)[C@]1(OC(C)=O)CO[C@@H]1C[C@@H]2O [PACLITAXEL]
IC50 [18]: 13.1 µM

COc1cc2ccc(=O)oc2cc1OC [SCOPARONE]
IC50 (HL-60): 1.1 to 40.7 µg/mL (≈ 5.33 to 197 µM)

COc1cc2ccc(=O)oc2cc1O [SCOPOLETIN]
IC50 [10]: 1.03 µM

c1cc2c(cc1[C@H]1OC[C@H]3[C@@H]1CO[C@@H]3c1ccc3c(c1)OCO3)OCO2 [SESAMIN]
IC50 (SH-SY5Y): 229 to 233 µM | IC50 [8]: 229 to 233 µM | IC50 (HepG2 [9]): 229 to 233 µM

CC(C)[C@]12O[C@H]1[C@@H]1O[C@]13[C@]1(O[C@H]1C[C@H]1C4=C(CC[C@@]13C)C(=O)OC4)[C@@H]2O [TRIPTOLIDE]
Activity (PANC-1 [19]): <10% | Activity (CFPAC-1 [20]): <0.4 g | Activity (PANC-1 [21]): <0.4 g | Activity (CFPAC-1 [22]): <10%
